Each structure is given as a SMILES string.

MIC data for 5 molecules are collected here from ChEMBL document CHEMBL1148058, “Antibacterial triterpenoid acids from Dillenia papuana” (1994).

Holding throughout (assay type): functional
The subject of one assay is Bacillus subtilis. Kind of assay: Antibacterial activity against Bacillus subtilis ATCC 6633.
A further assay relates to Escherichia coli. Kind of assay: Antibacterial activity against Escherichia coli ATCC 25922.
The subject of a further assay is Micrococcus luteus. As to the kind of experiment: Antibacterial activity against Micrococcus luteus ATCC 9341.

Turning to `CC1(C)C(=O)C=C[C@]2(C)[C@H]3CC=C4[C@@H]5C[C@@](C)(C(=O)O)CC[C@]5(C)CC[C@@]4(C)[C@]3(C)CC[C@@H]12`, the MIC against Bacillus subtilis, against Escherichia coli and in the assay on Micrococcus luteus was 1 µg throughout.
Turning to `CC1(C)[C@@H](O)C(=O)C[C@]2(C)[C@H]3CC=C4[C@@H]5C[C@@](C)(C(=O)O)CC[C@]5(C)CC[C@@]4(C)[C@]3(C)CC[C@@H]12` [DILLENIC ACID B], the MIC against Bacillus subtilis is 2 µg; with Escherichia coli, 1 µg; against Micrococcus luteus, 1 µg.
In the case of `CC1(C)C(=O)C[C@H](O)[C@]2(C)[C@H]3CC=C4[C@@H]5C[C@@](C)(C(=O)O)CC[C@]5(C)CC[C@@]4(C)[C@]3(C)CC[C@@H]12` [DILLENIC ACID C], the values for the MIC in the assay on Bacillus subtilis, with Escherichia coli and in the assay with Micrococcus luteus were 2 µg, 5 µg and 2 µg, respectively.
For `O=C(N[C@H](CO)[C@H](O)c1ccc([N+](=O)[O-])cc1)C(Cl)Cl` [CHLORAMPHENICOL], the MIC in the assay on Bacillus subtilis is 0.1 µg; in the assay with Escherichia coli, 0.04 µg; with Micrococcus luteus, 0.04 µg.
Consider `CC1(C)C(=O)[C@H](O)C[C@]2(C)[C@H]3CC=C4[C@@H]5C[C@@](C)(C(=O)O)CC[C@]5(C)CC[C@@]4(C)[C@]3(C)CC[C@@H]12` [DILLENIC ACID A], for which the MIC with Bacillus subtilis came to 2.4 µg; in the assay with Escherichia coli, 2.4 µg; with Micrococcus luteus it was 1.2 µg.
